# From ChEMBL document CHEMBL4613241, “Disulfide Cleavage in a Dimeric Epipolythiodioxopiperazine Natural Product Diminishes Its Apoptosis-Inducing Effect but Enhances Autophagy in Tumor Cells” (2020)
# Calls of active or inactive are those of the source. The rule behind the calls is not given here.
# Key:
# HepG2 [1] = assay: Induction of autophagy in human HepG2 cells assessed as ratio of LC3-2 to total Erk1/2 protein level at 0.5 uM after 4 hrs in presence of CQ by Western blot analysis (reference value: 2.6); format: functional
# [2] = target: Serine/threonine-protein kinase mTOR (Homo sapiens) (UniProt P42345); assay: Inhibition of mTOR phosphorylation at S2448 residue in human HepG2 cells assessed as ratio of phosphorylated mTOR to total ERK level at 0.25 uM after 4 hrs by Western blot analysis (reference value: 1); format: cell-based
# [3] = target: Serine/threonine-protein kinase mTOR (Homo sapiens) (UniProt P42345); assay: Inhibition of mTOR phosphorylation at S2448 residue in human HepG2 cells assessed as ratio of phosphorylated mTOR to total ERK level at 0.05 uM after 4 hrs by Western blot analysis (reference value: 1); format: cell-based
# HepG2 [4] = assay: Induction of endoplasmic reticulum stress in human HepG2 cells assessed as increase in […] expression at 0.5 uM after 4 hrs by anti-ATF6 antibody staining based fluorescence microscopic method; format: functional, cell-based
# HeLa = assay: Antiproliferative activity against human HeLa cells assessed as reduction in cell viability by MTS assay; format: functional, cell-based
# HepG2 [5] = assay: Induction of autophagy in human HepG2 cells assessed as ratio of LC3-2 to total Erk1/2 protein level at 0.5 uM after 4 hrs by Western blot analysis (reference value: 1); format: functional
# [6] = target: Serine/threonine-protein kinase mTOR (Homo sapiens) (UniProt P42345); assay: Inhibition of mTOR phosphorylation at S2448 residue in human HepG2 cells assessed as ratio of phosphorylated mTOR to total mTOR level at 1 uM after 4 hrs by Western blot analysis (reference value: 1); format: cell-based
# HepG2 [7] = assay: Induction of autophagy in human HepG2 cells assessed as ratio of LC3-2 level to total ERK level at 0.5 uM after 2 hrs in presence of 2-DG and CQ by Western blot analysis (reference value: 3.9); format: functional
# HepG2 [8] = assay: Induction of autophagy in human HepG2 cells assessed as ratio of LC3-2 level to total ERK level at 0.5 uM after 2 hrs in presence of HK2 siRNA and CQ by Western blot analysis (reference value: 3.1); format: functional
# HepG2 [9] = assay: Activation of AMPKalpha in human HepG2 cells assessed as ratio of phosphorylated AMPKalpha at T172 residue to total ERK level at 0.5 uM incubated for 4 hrs by Western blot analysis (reference value: 1); format: cell-based
# HepG2 [10] = assay: Activation of AMPKalpha in human HepG2 cells assessed as ratio of phosphorylated AMPKalpha at T172 residue to total ERK level at 0.5 uM incubated for 4 hrs in presence of CC by Western blot analysis (reference value: 1); format: cell-based
# T-24 [11] = assay: Induction of autophagy in human T24 cells assessed as increase in ratio of LC3-2 to total Erk1/2 protein level at 0.5 uM after 12 hrs by Western blot analysis; format: functional, cell-based
# HepG2 [12] = assay: Induction of autophagy in human HepG2 cells assessed as ratio of LC3-2 level to total ERK level at 0.5 uM after 2 hrs by Western blot analysis (reference value: 1); format: functional
# [13] = target: Serine/threonine-protein kinase mTOR (Homo sapiens) (UniProt P42345); assay: Inhibition of mTOR phosphorylation at S2448 residue in human HepG2 cells assessed as ratio of phosphorylated mTOR to total mTOR level at 0.1 uM after 4 hrs by Western blot analysis (reference value: 1); format: cell-based
# HepG2 [14] = assay: Induction of autophagy in human HepG2 cells ratio of LC3-2 level to total ERK level at 0.5 uM after 2 hrs in presence of CQ by Western blot analysis relative to CQ; format: functional
# HepG2 [15] = assay: Activation of AMPKalpha in human HepG2 cells assessed as ratio of ACCalpha phosphorylation at S79 residue to total ERK level at 0.5 uM incubated for 4 hrs by Western blot analysis (reference value: 1); format: cell-based
# HepG2 [16] = assay: Induction of autophagy in human HepG2 cells ratio of LC3-2 level to total ERK level at 0.5 uM after 2 hrs in presence of 2-DG and CQ by Western blot analysis relative to 2-DG; format: functional
# HepG2 [17] = assay: Induction of autophagy in human HepG2 cells assessed as ratio of LC3-2 level to total Erk1/2 protein level at 0.5 uM after 4 hrs in presence of CC and CQ by Western blot analysis relative to CC; format: functional
# [18] = target: RAC-alpha serine/threonine-protein kinase (Homo sapiens) (UniProt P31749); assay: Inhibition of AKT phosphorylation at S473 residue in human HepG2 cells assessed as ratio of phosphorylated Akt to total ERK level at 0.5 uM after 4 hrs by Western blot analysis (reference value: 1); format: cell-based
# Chain of RAC-alpha serine/threonine-protein kinase (Homo sapiens) (P31749 whole entry): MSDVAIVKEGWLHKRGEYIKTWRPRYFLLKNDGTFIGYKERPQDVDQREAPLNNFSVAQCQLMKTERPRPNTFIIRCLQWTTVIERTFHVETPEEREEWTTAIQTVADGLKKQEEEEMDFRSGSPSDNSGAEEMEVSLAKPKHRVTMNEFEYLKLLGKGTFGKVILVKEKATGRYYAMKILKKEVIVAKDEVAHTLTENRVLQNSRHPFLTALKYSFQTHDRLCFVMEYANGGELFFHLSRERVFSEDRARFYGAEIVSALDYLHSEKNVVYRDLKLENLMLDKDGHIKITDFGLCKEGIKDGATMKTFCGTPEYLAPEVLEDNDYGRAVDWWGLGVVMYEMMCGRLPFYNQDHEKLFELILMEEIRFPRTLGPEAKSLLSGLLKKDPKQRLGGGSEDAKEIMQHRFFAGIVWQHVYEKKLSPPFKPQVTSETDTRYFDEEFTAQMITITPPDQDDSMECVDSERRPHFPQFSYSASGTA
# HepG2 [19] = assay: Induction of autophagy in human HepG2 cells assessed as ratio of LC3-2 level to total ERK level at 0.5 uM after 2 hrs in presence of PFK15 and CQ by Western blot analysis (reference value: 1.1); format: functional
# HepG2 [20] = assay: Activation of AMPKalpha in human HepG2 cells assessed as ratio of phosphorylated ACCalpha at S79 residue to total ERK level at 0.5 uM incubated for 4 hrs in presence of CC by Western blot analysis (reference value: 1.1); format: cell-based
# SW480 = assay: Antiproliferative activity against human SW480 cells assessed as reduction in cell viability by MTS assay; format: functional, cell-based
# [21] = target: Serine/threonine-protein kinase mTOR (Homo sapiens) (UniProt P42345); assay: Inhibition of mTOR phosphorylation at S2448 residue in human HepG2 cells assessed as ratio of phosphorylated mTOR to total ERK level at 1 uM after 4 hrs by Western blot analysis (reference value: 1); format: cell-based
# HepG2 [22] = assay: Activation of AMPKalpha in human HepG2 cells assessed as ratio of phosphorylated AMPKalpha at T172 residue to total ERK level at 0.5 uM incubated for 4 hrs in presence of CC by Western blot analysis relative to CC; format: cell-based
# HepG2 [23] = assay: Induction of autophagy in human HepG2 cells assessed as ratio of PFKFB3 expression to total ERK level after 2 hrs by Western blot analysis (reference value: 1); format: functional
# [24] = target: Serine/threonine-protein kinase mTOR (Homo sapiens) (UniProt P42345); assay: Inhibition of mTOR phosphorylation at S2448 residue in human HepG2 cells assessed as ratio of phosphorylated mTOR to total mTOR level at 0.05 uM after 4 hrs by Western blot analysis (reference value: 1); format: cell-based
# HepG2 [25] = assay: Induction of autophagy in human HepG2 cells assessed as ratio of LC3-2 level to total ERK level at 0.5 uM after 2 hrs in presence of HK2 siRNA and CQ by Western blot analysis relative to HK2 siRNA; format: functional
# HepG2 [26] = assay: Induction of autophagy in human HepG2 cells assessed as increase in LC3 puncta staining at 0.5 uM after 4 hrs by immunostaining based fluorescence microscopic analysis; format: functional, cell-based
# [27] = target: Serine/threonine-protein kinase mTOR (Homo sapiens) (UniProt P42345); assay: Inhibition of mTOR phosphorylation at S2448 residue in human HepG2 cells assessed as ratio of phosphorylated mTOR to total mTOR level at 0.5 uM after 4 hrs by Western blot analysis (reference value: 1); format: cell-based
# T-24 [28] = assay: Antiproliferative activity against human T24 cells assessed as reduction in cell viability by MTS assay; format: functional, cell-based
# HepG2 [29] = assay: Induction of autophagy in human HepG2 cells assessed as ratio of LC3-2 to total Erk1/2 protein level at 0.5 uM after 12 hrs by Western blot analysis (reference value: 1); format: functional
Structure (SMILES),Ratio (HepG2 [1]),Ratio [2],Ratio [3],Activity (HepG2 [4]),Activity (HeLa),Ratio (HepG2 [5]),Ratio [6],Ratio (HepG2 [7]),Ratio (HepG2 [8]),Ratio (HepG2 [9]),Ratio (HepG2 [10]),Activity (T-24 [11]),Ratio (HepG2 [12]),Ratio [13],fold change (FC) (HepG2 [14]),Ratio (HepG2 [15]),fold change (FC) (HepG2 [16]),fold change (FC) (HepG2 [17]),Ratio [18],Ratio (HepG2 [19]),also measured
CC[C@@]12SS[C@]3(C(=O)N1C)[C@@H](O)C1(C45c6ccccc6N[C@@H]4N4C(=O)[C@]6([C@@H](C)O)SS[C@]4(C(=O)N6C)[C@H]5O)c4ccccc4N[C@@H]1N3C2=O (some centres not stated),2.8,1,1,inactive,Active,1.2,1.8,3.7,4.7,1.2,0.9,Active,1.5,1.2,2.1,1.4,3.7,0.9,1.2,4.4,Ratio (HepG2 [20]): 1; Activity (SW480): Active; Ratio [21]: 1; fold change (FC) (HepG2 [22]): 0.8; Ratio (HepG2 [23]): 0.7; Ratio [24]: 1.4; fold change (FC) (HepG2 [25]): 2.8; Activity (HepG2 [26]): Active; Ratio [27]: 1.8; Activity (T-24 [28]): Active; Ratio (HepG2 [29]): 1.3
CCC1(SC)C(=O)N2[C@H]3N(C)c4ccccc4C3(C34c5ccccc5N(C)[C@@H]3N3C(=O)C(SC)([C@@H](C)O)N(C)C(=O)C3(SC)[C@H]4O)[C@H](O)C2(SC)C(=O)N1C (some centres not stated),3.1,1,1,inactive,Active,1.1,2.2,3.7,7.2,1.4,0.9,Active,1.6,1.8,2.2,1.7,3.7,1.3,1.1,3.9,Ratio (HepG2 [20]): 1.1; Activity (SW480): Active; Ratio [21]: 0.9; fold change (FC) (HepG2 [22]): 0.6; Ratio (HepG2 [23]): 0.6; Ratio [24]: 1.8; fold change (FC) (HepG2 [25]): 6.6; Activity (HepG2 [26]): Active; Ratio [27]: 2.2; Activity (T-24 [28]): Active; Ratio (HepG2 [29]): 1.2
